Laboratory results from ChEMBL document CHEMBL1136264, “Syntheses of sphingosine-1-phosphate stereoisomers and analogues and their interaction with EDG receptors” (Bioorg Med Chem Lett, 2003).
Active and inactive are the calls of the source. The calls are words filed in the database; no cut-off is given here.

Key:
Format in all cases: cell-based
[1] = molecular target: Sphingosine 1-phosphate receptor 2 (Homo sapiens) (UniProt O95136); assay: In vitro binding affinity towards Endothelial differentiation G-protein coupled receptor 5 in CHO cells using [3H]S1P as radioligand relative to SIP
Sequence of Sphingosine 1-phosphate receptor 2 (Homo sapiens) (O95136 whole entry): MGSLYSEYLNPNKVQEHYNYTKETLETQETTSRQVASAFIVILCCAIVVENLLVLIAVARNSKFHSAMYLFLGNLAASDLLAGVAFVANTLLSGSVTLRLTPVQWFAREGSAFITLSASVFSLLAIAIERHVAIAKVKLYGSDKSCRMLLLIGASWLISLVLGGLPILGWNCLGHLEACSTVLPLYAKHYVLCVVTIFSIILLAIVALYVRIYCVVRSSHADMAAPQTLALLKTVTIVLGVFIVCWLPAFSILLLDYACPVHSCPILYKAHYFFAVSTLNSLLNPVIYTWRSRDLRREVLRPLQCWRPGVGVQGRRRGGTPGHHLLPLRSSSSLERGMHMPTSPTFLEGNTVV

[2] = molecular target: Sphingosine 1-phosphate receptor 1 (Homo sapiens) (UniProt P21453); assay: In vitro binding affinity towards Endothelial differentiation G-protein coupled receptor 1 in CHO cells using [3H]S1P as radioligand relative to SIP
Sequence of Sphingosine 1-phosphate receptor 1 (Homo sapiens) (P21453 whole entry): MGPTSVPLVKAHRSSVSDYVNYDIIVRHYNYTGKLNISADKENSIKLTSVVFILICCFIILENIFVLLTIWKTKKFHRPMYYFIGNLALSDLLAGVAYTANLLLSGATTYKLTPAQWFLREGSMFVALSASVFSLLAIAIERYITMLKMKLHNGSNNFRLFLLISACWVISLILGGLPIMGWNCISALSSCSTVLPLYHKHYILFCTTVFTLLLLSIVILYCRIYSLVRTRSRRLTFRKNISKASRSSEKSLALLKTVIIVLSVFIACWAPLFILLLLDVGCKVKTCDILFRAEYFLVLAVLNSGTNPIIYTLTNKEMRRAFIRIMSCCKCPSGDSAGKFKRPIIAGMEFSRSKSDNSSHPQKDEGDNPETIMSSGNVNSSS

[3] = molecular target: Sphingosine 1-phosphate receptor 3 (Homo sapiens) (UniProt Q99500); assay: In vitro binding affinity towards Endothelial differentiation G-protein coupled receptor 3 in CHO cells using [3H]S1P as radioligand relative to SIP
Sequence of Sphingosine 1-phosphate receptor 3 (Homo sapiens) (Q99500 whole entry): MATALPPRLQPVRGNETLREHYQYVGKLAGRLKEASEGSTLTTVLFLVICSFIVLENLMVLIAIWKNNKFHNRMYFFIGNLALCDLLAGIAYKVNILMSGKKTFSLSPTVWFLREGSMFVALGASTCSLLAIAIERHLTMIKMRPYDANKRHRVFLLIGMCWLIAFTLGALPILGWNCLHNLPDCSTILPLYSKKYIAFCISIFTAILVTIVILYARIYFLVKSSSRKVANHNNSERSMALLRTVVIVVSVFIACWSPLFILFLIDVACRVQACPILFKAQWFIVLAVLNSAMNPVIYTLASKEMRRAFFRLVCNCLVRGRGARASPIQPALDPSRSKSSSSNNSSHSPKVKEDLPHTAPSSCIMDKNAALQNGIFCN

[4] = molecular target: Sphingosine 1-phosphate receptor 2 (Homo sapiens) (UniProt O95136); assay: In vitro binding affinity towards Endothelial differentiation G-protein coupled receptor 5 in CHO cells using [3H]S1P as radioligand relative to SIP; Not active
[5] = molecular target: Sphingosine 1-phosphate receptor 1 (Homo sapiens) (UniProt P21453); assay: In vitro binding affinity towards Endothelial differentiation G-protein coupled receptor 1 in CHO cells using [3H]S1P as radioligand relative to SIP; Not active
[6] = molecular target: Sphingosine 1-phosphate receptor 3 (Homo sapiens) (UniProt Q99500); assay: In vitro binding affinity towards Endothelial differentiation G-protein coupled receptor 3 in CHO cells using [3H]S1P as radioligand relative to SIP; Not active

SMILES | Relative binding affinity [1] | Relative binding affinity [2] | Relative binding affinity [3] | Relative binding affinity [4] | Relative binding affinity [5] | Relative binding affinity [6]
CCCCCCCCCCCCCCC[C@H](O)[C@@H](N)COP(=O)(O)O | 30% | 12% | 51% |  |  | 
CCCCCCCCCCCCCCC[C@@H](O)[C@@H](N)COP(=O)(O)O | 54% | 41% | 86% |  |  | 
CCCCCCCCCCCCC/C=C/[C@@H](O)[C@@H](N)COP(=O)(OC)OC |  |  |  | inactive | inactive | inactive
CCCCCCCCCCCCCCC[C@H](O)[C@H](N)COP(=O)(O)O |  |  |  | inactive | inactive | inactive
CCCCCCCCCCCCC/C=C/[C@H](O)[C@H](N)COP(=O)(O)O | 41% | 7.4% | 20% |  |  | 
CCCCCCCCCCCCCCCC[C@@H](N)COP(=O)(O)O |  |  | 29% |  |  | 
CCCCCCCCCCCCC/C=C/[C@H](O)[C@@H](N)COP(=O)(O)O | 23% | 27% | 46% |  |  | 
